We go through 14 molecules from patent publication US20220370440A1 (Lead Discovery Center GmbH, priority 2018, published 2022).

Data set [1] is described as follows: Metabolic stability in mouse liver microsomes without cofactor NADPH. It is filed as in vitro ADME. To be noted: for Stability in presence of mouse liver microsomes without cofactor NADPH [% remaining after 50 min]: 3 μM test compound, 37° C., LC-MS/MS. An excerpt:
There are two major groups of enzyme reactions catalyzed by drug metabolizing enzymes, the so called Phase I and Phase II reactions. The basic processes in phase I reactions are oxidation, reduction and/or hydrolysis mostly catalyzed by the cytochrome P450 (CYP) family of enzymes.
The following procedures describe the determination of the in vitro Phase I metabolic stability of test compounds using liver microsomes by measuring compound depletion over time. Test compound at the concentration of 3 μM was incubated with the liver microsomes from the mouse species and the experiment was performed without NADPH. The depletion of the test compounds was measured over time up to 50 minutes at 37° C. by LC-MS/MS. Different compounds were tested under these conditions for microsomal stability (see Table 5).
(In general: Liver microsomes are a subcellular fraction often used to study metabolism.)

Data set [2] has as its target T1, HER2 INS YVMA (Homo sapiens, UniProt P04626, INS775YVMA).
T1 construct: purchased DPF
Description: Lance Kinase Activity Assay, HER2 INS YVMA (Her2 Exon 20 INSYVMA Lance). It is filed as biochemical. Particulars: biochemical Lance assay. In short, it runs like this:
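Kinase phosphorylates a ULight-labelled peptide substrate; Eu anti-phospho antibody gives TR-FRET (ex 340 nm, em 665/615 nm). Compounds in 1:3 serial dilution over 8 steps, reaction started with ATP, 1 h at room temperature, stopped with EDTA-containing detection mix for 1 h. IC50 from sigmoidal dose-response curves.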

Data set [3] concerns the target EGFR Exon 20 INSNPH Ba/F3 (Homo sapiens, UniProt P00533, DUP771-773, cells depend on it). Description: EGFR Exon 20 INSNPH Ba/F3 CellTiter-Glo. It is filed as cell-based. Particulars: CellTiter-Glo, 72 h, read-out: EGFR Exon 20 INSNPH Ba/F3 CTG IC50. In short, it runs like this: (§1)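 Seed Ba/F3 cells; 24 h, 37 °C/5% CO2. Add cpds in DMSO, multiple concs; 72 h. CellTiter-Glo, 10 min RT, luminescence. IC50 by curve fit. Z′ ≥0.5 from DMSO vs 10 μM staurosporine.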
A general note: In ATP-based viability assays light output follows the ATP content of the culture.

The test system of data set [4] is H1975. Description: H1975 CellTiter-Glo. It is filed as cell-based. To be noted: Homo sapiens, NCI-H1975; 72 h compound incubation; read-out: H1975 CTG IC50. In short, it runs like this: (§2)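 Luminescence from cellular ATP serves as the viability signal after cells are treated with compound dilutions for 72 h at 37° C. IC50 is derived by curve fitting, with DMSO-treated and 10 μM Staurosporine-treated wells defining the assay window.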

For data set [5], the target named is EGFR wt (Homo sapiens, UniProt P00533). The data set can be described thus: EGFR wt Lance assay. It is filed as biochemical. How it is done:
(§3) Inhibition is indicated as […] [nM] (“−”=not measured). Compounds having an activity designated as “A” provided an IC50≤100 nM; compounds having an activity designated as “B” provided an 100 nM<IC50≤500 nM; compounds having an activity designated as “C” provided an 500 nM<IC50≤1000 nM; compounds having an activity designated as “D” provided an 1000 nM<IC50≤100000 nM; and compounds having an activity designated as “E” provided an IC50>10000 nM.

Data set [6] addresses EGFR T790ML858R (Homo sapiens, UniProt P00533, L858R/T790M). The data set can be described thus: EGFR T790ML858R Lance assay. It is filed as biochemical. Here is the method: as §3
Data set [7] addresses Her2 Exon 20 INSYVMA Ba/F3 (Homo sapiens, UniProt P04626, DUP772-775, cells depend on it). The data set can be described thus: Her2 Exon 20 INSYVMA Ba/F3 CellTiter-Glo. To be noted: CellTiter-Glo, 72 h, read-out: Her2 Exon 20 INSYVMA Ba/F3 CTG IC50. The data set is classed as cell-based. In short, it runs like this:
as §1

For data set [8], the system named is A431. The data set can be described thus: A431 CellTiter-Glo. It is filed as cell-based. To be noted: Homo sapiens, A-431; 72 h compound incubation; read-out: A431 CTG IC50. In short, it runs like this: as §2

Chain of EGFR wt (P00533 25-1210): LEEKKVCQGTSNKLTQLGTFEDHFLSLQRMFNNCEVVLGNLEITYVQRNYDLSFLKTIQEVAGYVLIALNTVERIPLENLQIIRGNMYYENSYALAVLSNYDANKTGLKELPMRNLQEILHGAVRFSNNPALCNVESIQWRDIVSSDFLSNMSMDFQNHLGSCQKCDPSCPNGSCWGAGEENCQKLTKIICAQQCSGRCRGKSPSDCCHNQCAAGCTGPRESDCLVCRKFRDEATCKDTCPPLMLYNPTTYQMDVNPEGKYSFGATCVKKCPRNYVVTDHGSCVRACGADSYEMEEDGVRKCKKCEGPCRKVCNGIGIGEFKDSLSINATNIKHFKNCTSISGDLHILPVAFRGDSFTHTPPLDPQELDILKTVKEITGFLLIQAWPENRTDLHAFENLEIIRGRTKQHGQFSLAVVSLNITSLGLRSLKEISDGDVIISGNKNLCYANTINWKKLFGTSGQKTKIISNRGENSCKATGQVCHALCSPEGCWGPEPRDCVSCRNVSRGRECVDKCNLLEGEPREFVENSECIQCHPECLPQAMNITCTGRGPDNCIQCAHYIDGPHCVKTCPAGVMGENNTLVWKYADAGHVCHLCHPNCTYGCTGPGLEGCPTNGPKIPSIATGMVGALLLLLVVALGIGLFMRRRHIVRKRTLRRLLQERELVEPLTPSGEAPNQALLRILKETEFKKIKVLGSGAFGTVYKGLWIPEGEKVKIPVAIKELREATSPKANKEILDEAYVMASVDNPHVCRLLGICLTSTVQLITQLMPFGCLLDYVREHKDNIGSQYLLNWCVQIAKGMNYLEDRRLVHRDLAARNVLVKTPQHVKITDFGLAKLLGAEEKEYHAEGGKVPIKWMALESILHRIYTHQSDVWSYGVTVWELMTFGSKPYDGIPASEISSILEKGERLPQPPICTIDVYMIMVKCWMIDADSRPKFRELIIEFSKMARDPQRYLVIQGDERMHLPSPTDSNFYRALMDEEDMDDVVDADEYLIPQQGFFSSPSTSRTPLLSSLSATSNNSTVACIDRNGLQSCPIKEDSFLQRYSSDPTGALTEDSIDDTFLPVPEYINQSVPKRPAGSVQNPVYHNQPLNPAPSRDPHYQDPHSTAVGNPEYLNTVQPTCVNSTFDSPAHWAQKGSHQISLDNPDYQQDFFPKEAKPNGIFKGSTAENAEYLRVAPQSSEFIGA
Chain of EGFR T790ML858R (P00533 25-1210 T790M/L858R): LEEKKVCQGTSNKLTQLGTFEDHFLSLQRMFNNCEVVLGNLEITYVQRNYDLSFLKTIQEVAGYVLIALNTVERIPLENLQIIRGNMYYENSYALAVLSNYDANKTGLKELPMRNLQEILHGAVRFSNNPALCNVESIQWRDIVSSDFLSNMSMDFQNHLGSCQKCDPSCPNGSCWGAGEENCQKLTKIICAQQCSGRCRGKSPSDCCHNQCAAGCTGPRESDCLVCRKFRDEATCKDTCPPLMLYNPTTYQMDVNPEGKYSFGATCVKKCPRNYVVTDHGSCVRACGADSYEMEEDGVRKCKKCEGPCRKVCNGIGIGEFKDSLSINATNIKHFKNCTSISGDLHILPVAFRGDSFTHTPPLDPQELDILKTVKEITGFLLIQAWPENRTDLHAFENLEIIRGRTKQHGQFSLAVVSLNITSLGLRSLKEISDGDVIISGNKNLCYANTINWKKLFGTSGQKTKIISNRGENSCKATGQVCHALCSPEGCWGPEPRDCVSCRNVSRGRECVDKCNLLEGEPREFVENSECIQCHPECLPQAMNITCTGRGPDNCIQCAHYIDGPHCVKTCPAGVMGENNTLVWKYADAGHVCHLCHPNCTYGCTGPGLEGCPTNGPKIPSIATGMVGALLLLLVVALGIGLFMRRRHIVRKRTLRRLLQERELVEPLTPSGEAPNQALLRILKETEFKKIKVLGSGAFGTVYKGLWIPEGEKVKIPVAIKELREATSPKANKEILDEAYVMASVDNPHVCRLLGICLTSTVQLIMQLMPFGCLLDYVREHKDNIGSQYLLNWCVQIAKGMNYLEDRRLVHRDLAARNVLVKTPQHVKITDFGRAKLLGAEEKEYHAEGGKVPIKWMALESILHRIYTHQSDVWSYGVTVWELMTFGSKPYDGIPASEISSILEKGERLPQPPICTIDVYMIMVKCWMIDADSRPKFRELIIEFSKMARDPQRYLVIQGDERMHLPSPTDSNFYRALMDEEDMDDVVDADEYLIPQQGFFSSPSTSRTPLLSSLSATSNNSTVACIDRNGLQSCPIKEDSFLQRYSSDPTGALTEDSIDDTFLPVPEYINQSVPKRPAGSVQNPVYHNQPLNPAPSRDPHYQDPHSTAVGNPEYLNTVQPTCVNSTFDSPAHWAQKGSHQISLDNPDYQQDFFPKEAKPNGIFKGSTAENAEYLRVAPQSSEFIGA
Chain of Her2 Exon 20 INSYVMA Ba/F3 (P04626 with tags, fused parts or gaps DUP772-775): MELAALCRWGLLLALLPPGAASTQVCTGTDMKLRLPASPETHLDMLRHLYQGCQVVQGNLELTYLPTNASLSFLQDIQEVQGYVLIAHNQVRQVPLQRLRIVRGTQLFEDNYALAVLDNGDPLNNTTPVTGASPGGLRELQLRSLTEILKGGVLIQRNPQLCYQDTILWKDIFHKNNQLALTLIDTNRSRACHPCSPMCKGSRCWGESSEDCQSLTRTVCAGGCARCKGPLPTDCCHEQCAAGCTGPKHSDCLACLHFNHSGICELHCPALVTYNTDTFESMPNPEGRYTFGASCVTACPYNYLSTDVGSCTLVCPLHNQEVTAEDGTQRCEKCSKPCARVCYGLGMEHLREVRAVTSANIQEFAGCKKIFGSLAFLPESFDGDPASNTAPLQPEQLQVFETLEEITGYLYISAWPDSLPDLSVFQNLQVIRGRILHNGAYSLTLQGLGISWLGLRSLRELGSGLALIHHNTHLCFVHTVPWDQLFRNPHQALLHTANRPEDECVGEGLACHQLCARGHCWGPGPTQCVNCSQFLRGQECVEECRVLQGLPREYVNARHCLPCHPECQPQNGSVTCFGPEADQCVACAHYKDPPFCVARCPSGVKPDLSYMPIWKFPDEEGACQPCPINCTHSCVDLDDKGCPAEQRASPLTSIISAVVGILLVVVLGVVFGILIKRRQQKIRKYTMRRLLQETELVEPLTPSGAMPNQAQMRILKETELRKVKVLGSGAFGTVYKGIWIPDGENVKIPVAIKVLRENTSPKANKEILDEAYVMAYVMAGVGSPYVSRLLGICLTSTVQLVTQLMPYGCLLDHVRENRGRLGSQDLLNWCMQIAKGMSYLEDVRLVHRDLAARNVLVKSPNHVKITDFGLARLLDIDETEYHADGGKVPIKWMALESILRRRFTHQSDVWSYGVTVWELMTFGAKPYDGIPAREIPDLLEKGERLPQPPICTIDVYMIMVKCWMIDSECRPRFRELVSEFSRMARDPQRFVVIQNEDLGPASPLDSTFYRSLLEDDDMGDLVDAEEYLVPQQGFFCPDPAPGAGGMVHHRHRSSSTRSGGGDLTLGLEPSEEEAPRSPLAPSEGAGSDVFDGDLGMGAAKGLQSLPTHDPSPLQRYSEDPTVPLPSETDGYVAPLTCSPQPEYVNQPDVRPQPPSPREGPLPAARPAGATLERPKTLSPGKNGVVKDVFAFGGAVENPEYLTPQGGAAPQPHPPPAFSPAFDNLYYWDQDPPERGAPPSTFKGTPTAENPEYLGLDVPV
T1 sequence (P04626 with tags, fused parts or gaps INS775YVMA): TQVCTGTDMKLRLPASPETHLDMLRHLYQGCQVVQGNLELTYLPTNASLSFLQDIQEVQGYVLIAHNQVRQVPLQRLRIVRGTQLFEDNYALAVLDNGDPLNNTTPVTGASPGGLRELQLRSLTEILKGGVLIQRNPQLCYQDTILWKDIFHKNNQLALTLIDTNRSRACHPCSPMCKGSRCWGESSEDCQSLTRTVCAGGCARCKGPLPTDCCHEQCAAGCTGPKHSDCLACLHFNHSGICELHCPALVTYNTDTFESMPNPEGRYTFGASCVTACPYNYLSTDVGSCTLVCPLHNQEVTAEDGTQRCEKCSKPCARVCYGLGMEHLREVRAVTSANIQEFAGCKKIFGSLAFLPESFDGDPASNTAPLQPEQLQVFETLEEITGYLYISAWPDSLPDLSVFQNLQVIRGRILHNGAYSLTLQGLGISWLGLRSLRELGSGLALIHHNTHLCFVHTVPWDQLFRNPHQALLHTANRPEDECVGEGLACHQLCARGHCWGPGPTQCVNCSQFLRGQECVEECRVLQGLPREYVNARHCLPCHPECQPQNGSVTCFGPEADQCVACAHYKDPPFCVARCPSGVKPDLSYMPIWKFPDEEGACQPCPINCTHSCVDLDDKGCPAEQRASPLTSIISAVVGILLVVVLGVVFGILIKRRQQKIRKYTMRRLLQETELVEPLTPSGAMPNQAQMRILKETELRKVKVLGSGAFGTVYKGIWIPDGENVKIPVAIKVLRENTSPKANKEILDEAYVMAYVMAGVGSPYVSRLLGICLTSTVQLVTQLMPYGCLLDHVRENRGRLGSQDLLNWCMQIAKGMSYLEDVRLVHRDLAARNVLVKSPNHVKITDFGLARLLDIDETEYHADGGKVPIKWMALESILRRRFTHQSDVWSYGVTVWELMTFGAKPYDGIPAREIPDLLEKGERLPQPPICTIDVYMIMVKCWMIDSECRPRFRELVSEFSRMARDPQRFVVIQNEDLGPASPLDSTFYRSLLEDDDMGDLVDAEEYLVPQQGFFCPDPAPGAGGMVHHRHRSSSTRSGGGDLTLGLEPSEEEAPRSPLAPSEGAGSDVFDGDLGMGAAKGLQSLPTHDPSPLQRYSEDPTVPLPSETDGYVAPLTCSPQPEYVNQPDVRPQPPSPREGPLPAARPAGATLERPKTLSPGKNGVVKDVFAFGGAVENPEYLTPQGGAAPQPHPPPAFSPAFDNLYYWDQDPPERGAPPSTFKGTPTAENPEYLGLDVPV

For `C=CC(=O)Nc1cc(OC)cc(-c2c(-c3ccc(N4CCN(C)CC4)cc3)[nH]c3ncccc23)c1` [Reference 2, reference compound], the “Stability in presence of mouse liver microsomes without cofactor NADPH [% remaining after 50 min]” value in data set [1] turned out to be 48 % remaining after 50 min.
`C=CC(=O)Nc1cccc(-c2c(-c3ccc(C4CCN(C)CC4)cc3)[nH]c3ncccc23)c1` [Reference 1, reference compound]: the “Stability in presence of mouse liver microsomes without cofactor NADPH [% remaining after 50 min]” value in data set [1] came to 33 % remaining after 50 min. The major metabolite observed entry in data set [1] (mouse liver microsomes with and without the cofactor NADPH) is recorded as “hydrolysis of the acrylamide moiety”.
By IC50 is commonly meant the concentration that inhibits the measured activity by half. For `C=CC(=O)Nc1cc(-c2c(-c3ccc(N4CCN(C)CC4)cc3)[nH]c3ncc(C(=O)NCc4ccncc4)cc23)ccc1C` [Example 127, 3-(3-acrylamido-4-methylphenyl)-2-(4-(4-methylpiperazin-1-yl)phenyl)-N-(pyridin-4-ylmethyl)-1H-pyrrolo[2,3-b]pyridine-5-carboxamide], the 50% inhibitory concentration (IC50) was not above 100 nM in data set [2]; 1000 to 100000 nM in data set [4]; not above 100 nM in data set [5]; not above 100 nM in data set [6]; 1000 to 100000 nM in data set [8]. The GI50 in data set [3] and in data set [7] was 1000 to 10000 nM each time.
Take `C=CC(=O)Nc1cc(-c2c(-c3ccc(N4CCN(C)CC4)cc3)[nH]c3ncc(OCC)cc23)ccc1C` [Example 193, N-(5-(5-ethoxy-2-(4-(4-methylpiperazin-1-yl)phenyl)-1H-pyrrolo[2,3-b]pyridin-3-yl)-2-methylphenyl)acrylamide 2,2,2-trifluoroacetate]: the IC50 in data set [2] was not above 100 nM; in data set [4], 100 to 500 nM; in data set [5] it was not above 100 nM; in data set [6], not above 100 nM; in data set [8], 1000 to 100000 nM. Moreover, the GI50 is 100 to 500 nM in data set [3] and not above 100 nM in data set [7].
Regarding `C=CC(=O)Nc1cc(-c2c(-c3ccc(N4CCN(C)CC4)cc3)[nH]c3ncc(C(=O)NCc4cccnc4)cc23)ccc1C` [Example 128, 3-(3-acrylamido-4-methylphenyl)-2-(4-(4-methylpiperazin-1-yl)phenyl)-N-(pyridin-3-ylmethyl)-1H-pyrrolo[2,3-b]pyridine-5-carboxamide], the IC50 in data set [2] was not above 100 nM; in data set [4], 1000 to 100000 nM; in data set [5], not above 100 nM; in data set [6] it was not above 100 nM; in data set [8], 1000 to 100000 nM. In addition, the GI50 in data set [3] and in data set [7] was 1000 to 10000 nM each time.
In the case of `C=CC(=O)Nc1cc(-c2c(-c3ccc(N4CCN(C)CC4)cc3)[nH]c3ncc(NC(C)=O)cc23)ccc1C` [Example 201, N-(5-(5-acetamido-2-(4-(4-methylpiperazin-1-yl)phenyl)-1H-pyrrolo[2,3-b]pyridin-3-yl)-2-methylphenyl)acrylamide], the IC50 in data set [2] is not above 100 nM; in data set [4], 1000 to 100000 nM; in data set [5], not above 100 nM; in data set [6], not above 100 nM; in data set [8] it was 1000 to 100000 nM. For the same molecule, the GI50 in data set [3] and in data set [7] was 1000 to 10000 nM each time.
On to `C=CC(=O)Nc1cc(-c2c(-c3ccnc(N4CCN(C)CC4)c3)[nH]c3ncc(C(=O)OC(C)C)cc23)ccc1C` [Example 156, isoproyl 3-(3-acrylamido-4-methylphenyl)-2-(2-(4-methylpiperazin-1-yl)pyridin-4-yl)-1H-pyrrolo[2,3-b]pyridine-5-carboxylate 2,2,2-trifluoroacetate], for which the IC50 is not above 100 nM in data set [2]; 500 to 1000 nM in data set [4]; not above 100 nM in data set [5]; not above 100 nM in data set [6]; 1000 to 100000 nM in data set [8]. Further, the GI50 in data set [3] and in data set [7] was 100 to 500 nM in each case.
For `C=CC(=O)Nc1cc(-c2c(-c3ccc(CN(C)C)cc3)[nH]c3ncc(C(=O)OC(C)C)cc23)ccc1C` [Example 151, isopropyl 3-(3-acrylamido-4-methylphenyl)-2-(4-((dimethylamino)methyl)phenyl)-1H-pyrrolo[2,3-b]pyridine-5-carboxylate], the IC50 in data set [2] is not above 100 nM; in data set [4], 100 to 500 nM; in data set [5], not above 100 nM; in data set [6] it was not above 100 nM; in data set [8], 1000 to 100000 nM. Moreover, the GI50 in data set [3] and in data set [7] was 100 to 500 nM each time.
`C=CC(=O)Nc1cc(-c2c(-c3ccc(N4CCN(C)CC4)cc3)[nH]c3ncc(C(=O)OC(C)C)cc23)ccc1C` [Example 117, isopropyl 3-(3-acrylamido-4-methylphenyl)-2-(4-(4-methylpiperazin-1-yl)phenyl)-1H-pyrrolo[2,3-b]pyridine-5-carboxylate 2,2,2-trifluoroacetate]: the “Stability in presence of mouse liver microsomes without cofactor NADPH [% remaining after 50 min]” value in data set [1] amounted to 100 % remaining after 50 min.
As to `C=CC(=O)Nc1cc(-c2c(-c3ccc(N4CCN(C)CC4)cc3)[nH]c3ncc(C(=O)OC4COC4)cc23)ccc1C` [Example 141, oxetan-3-yl 3-(3-acrylamido-4-methylphenyl)-2-(4-(4-methylpiperazin-1-yl)phenyl)-1H-pyrrolo[2,3-b]pyridine-5-carboxylate], the IC50 is not above 100 nM in data set [2]; 100 to 500 nM in data set [4]; not above 100 nM in data set [5]; not above 100 nM in data set [6]; 1000 to 100000 nM in data set [8]. Besides, the GI50 in data set [3] and in data set [7] was 500 to 1000 nM each time.
As for `C=CC(=O)Nc1cc(-c2c(-c3ccc(C4CCN(C)CC4)cc3)[nH]c3nccc(Cl)c23)cc(C)c1C` [Example 152, N-(5-(4-chloro-2-(4-(1-methylpiperidin-4-yl)phenyl)-1H-pyrrolo[2,3-b]pyridin-3-yl)-2,3-dimethylphenyl)acrylamide], the IC50 was not above 100 nM in data set [2]; not above 100 nM in data set [4]; not above 100 nM in data set [5]; not above 100 nM in data set [6]; 500 to 1000 nM in data set [8]. The GI50 in data set [3] and in data set [7] was 100 to 500 nM throughout.
With `C=CC(=O)Nc1cc(-c2c(-c3cnc(N4CCN(C)CC4)s3)[nH]c3ncc(C(=O)OC(C)C)cc23)ccc1C` [Example 169, isopropyl 3-(3-acrylamido-4-methylphenyl)-2-(2-(4-methylpiperazin-1-yl)thiazol-5-yl)-1H-pyrrolo[2,3-b]pyridine-5-carboxylate], the IC50 is not above 100 nM in data set [2]; 1000 to 100000 nM in data set [4]; not above 100 nM in data set [5]; not above 100 nM in data set [6]; 1000 to 100000 nM in data set [8]. Besides, the GI50 is 100 to 500 nM in data set [3] and 500 to 1000 nM in data set [7].
As for `C=CC(=O)Nc1cc(-c2c(-c3ccc(N4CCN(C)CC4)cc3)[nH]c3ncc(CC(=O)O)cc23)ccc1C` [Example 189, 2-(3-(3-acrylamido-4-methylphenyl)-2-(4-(4-methylpiperazin-1-yl)phenyl)-1H-pyrrolo[2,3-b]pyridin-5-yl)acetic acid 2,2,2-trifluoroacetate], the IC50 in data set [2] is not above 100 nM; in data set [4] it was more than 10000 nM; in data set [5] it was not above 100 nM; in data set [6] it was not above 100 nM; in data set [8], more than 10000 nM. Moreover, the GI50 in data set [3] and in data set [7] was more than 10000 nM each time.
In the case of `C=CC(=O)N1CCc2ccc(-c3c(-c4ccc(CN(C)C)cc4)[nH]c4nccc(OCC)c34)cc21` [Example 106, 1-(6-(2-(4-((dimethylamino)methyl)phenyl)-4-ethoxy-1H-pyrrolo[2,3-b]pyridin-3-yl)indolin-1-yl)prop-2-en-1-one], the IC50 in data set [2] is not above 100 nM; in data set [4] it was not above 100 nM; in data set [5], not above 100 nM; in data set [6], not above 100 nM; in data set [8] it was 500 to 1000 nM. For the same molecule, the GI50 in data set [3] and in data set [7] was 100 to 500 nM each time.
